Experimental data as given in BindingDB's records for doi:10.1016/j.bmc.2017.06.015 (China Pharmaceutical University, 2017).

Columns and labels:
[1] = Inhibition of ABCB1 in human K562/A02 cells assessed as potentiation of adriamycin-induced cytotoxicity by measuring ADR IC50 at 5 uM measured after 48 hrs by MTT assay (Rvb = 43.75 to 96.91 uM)
[2] = biological target: ATP-dependent translocase ABCB1 (Homo sapiens, UniProt P08183); assay: Inhibition of ABCB1 in human K562/A02 cells assessed as potentiation of adriamycin-induced cytotoxicity by measuring ADR IC50 at 5 uM measured after 48 hrs by MTT assay (Rvb = 43.75 to 96.91 uM)
Sequence of ATP-dependent translocase ABCB1 (P08183 whole entry): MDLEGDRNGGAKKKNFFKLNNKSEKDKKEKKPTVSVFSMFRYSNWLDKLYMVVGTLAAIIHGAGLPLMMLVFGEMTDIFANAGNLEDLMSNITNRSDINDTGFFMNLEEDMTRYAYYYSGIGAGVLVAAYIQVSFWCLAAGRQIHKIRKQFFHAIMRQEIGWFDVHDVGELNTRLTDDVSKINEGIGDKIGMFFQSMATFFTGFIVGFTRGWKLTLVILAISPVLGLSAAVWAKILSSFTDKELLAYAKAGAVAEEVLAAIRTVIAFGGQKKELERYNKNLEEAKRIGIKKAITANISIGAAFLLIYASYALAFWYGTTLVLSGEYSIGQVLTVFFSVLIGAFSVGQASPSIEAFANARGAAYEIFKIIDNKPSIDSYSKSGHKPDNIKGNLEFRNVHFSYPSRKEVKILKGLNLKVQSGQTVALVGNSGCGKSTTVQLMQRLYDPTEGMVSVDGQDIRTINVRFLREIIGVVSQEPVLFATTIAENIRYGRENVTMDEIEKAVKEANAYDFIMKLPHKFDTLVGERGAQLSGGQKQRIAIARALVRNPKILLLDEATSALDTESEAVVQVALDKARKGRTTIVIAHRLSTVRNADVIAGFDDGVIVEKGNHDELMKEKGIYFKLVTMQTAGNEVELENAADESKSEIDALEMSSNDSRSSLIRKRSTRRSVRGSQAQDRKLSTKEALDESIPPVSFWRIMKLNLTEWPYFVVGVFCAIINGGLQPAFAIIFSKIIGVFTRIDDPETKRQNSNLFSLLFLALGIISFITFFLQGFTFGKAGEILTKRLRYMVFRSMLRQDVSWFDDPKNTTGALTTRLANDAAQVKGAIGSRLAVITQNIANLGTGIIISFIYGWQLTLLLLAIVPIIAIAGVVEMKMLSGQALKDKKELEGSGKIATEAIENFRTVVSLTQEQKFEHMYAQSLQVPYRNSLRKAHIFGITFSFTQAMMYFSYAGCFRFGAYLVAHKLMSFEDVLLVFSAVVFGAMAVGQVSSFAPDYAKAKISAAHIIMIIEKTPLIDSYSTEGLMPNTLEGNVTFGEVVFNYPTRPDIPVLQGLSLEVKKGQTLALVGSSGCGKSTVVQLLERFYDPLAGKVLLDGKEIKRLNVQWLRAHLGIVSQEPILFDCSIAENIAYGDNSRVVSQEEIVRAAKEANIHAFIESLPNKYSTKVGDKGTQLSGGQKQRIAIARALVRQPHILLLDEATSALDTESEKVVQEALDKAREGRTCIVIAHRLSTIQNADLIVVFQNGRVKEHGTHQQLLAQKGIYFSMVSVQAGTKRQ

[3] = Inhibition of ABCB1 in human K562/A02 cells assessed as potentiation of adriamycin-induced cytotoxicity measured after 48 hrs by MTT assay
[4] = Inhibition of ABCB1 in human K562/A02 cells assessed as potentiation of adriamycin-induced cytotoxicity by measuring ADR IC50 at 1 uM measured after 48 hrs by MTT assay (Rvb = 43.75 uM)
[5] = Inhibition of ABCB1 in human K562/A02 cells assessed as potentiation of adriamycin-induced cytotoxicity by measuring ADR IC50 measured after 48 hrs by MTT assay (Rvb = 51.34 +/- 5.1 uM)
[6] = Inhibition of ABCB1 in human K562/A02 cells assessed as potentiation of adriamycin-induced cytotoxicity by measuring ADR IC50 at 0.1 uM measured after 48 hrs by MTT assay (Rvb = 43.75 uM)
[7] = Inhibition of ABCB1 in human K562/A02 cells assessed as potentiation of adriamycin-induced cytotoxicity by measuring ADR IC50 at 0.5 uM measured after 48 hrs by MTT assay (Rvb = 43.75 uM)
[8] = Inhibition of ABCB1 in human K562/A02 cells assessed as potentiation of adriamycin-induced cytotoxicity by measuring ADR IC50 at 2.5 uM measured after 48 hrs by MTT assay (Rvb = 43.75 uM)
[9] = Inhibition of ABCB1 in human K562/A02 cells assessed as potentiation of adriamycin-induced cytotoxicity by measuring ADR IC50 at 0.25 uM measured after 48 hrs by MTT assay (Rvb = 43.75 uM)
[10] = Inhibition of ABCB1 in human K562/A02 cells assessed as potentiation of adriamycin-induced cytotoxicity by measuring ADR IC50 at 0.05 uM measured after 48 hrs by MTT assay (Rvb = 43.75 uM)
[11] = Inhibition of ABCB1 in human K562/A02 cells assessed as potentiation of adriamycin-induced cytotoxicity by measuring ADR IC50 at 0.025 uM measured after 48 hrs by MTT assay (Rvb = 43.75 uM)
[12] = Inhibition of ABCB1 in human K562/A02 cells assessed as potentiation of adriamycin-induced cytotoxicity by measuring ADR IC50 treated for 48 hrs followed by compound washout measured after 6 hrs by MTT assay (Rvb = 51.34 +/- 5.1 uM)
[13] = Inhibition of ABCB1 in human K562/A02 cells assessed as potentiation of adriamycin-induced cytotoxicity by measuring ADR IC50 treated for 48 hrs followed by compound washout measured immediately by MTT assay (Rvb = 51.34 +/- 5.1 uM)
[14] = Inhibition of ABCB1 in human K562/A02 cells assessed as potentiation of adriamycin-induced cytotoxicity by measuring ADR IC50 treated for 48 hrs followed by compound washout measured after 24 hrs by MTT assay (Rvb = 51.34 +/- 5.1 uM)
[15] = Inhibition of ABCB1 in human K562/A02 cells assessed as potentiation of adriamycin-induced cytotoxicity by measuring ADR IC50 treated for 48 hrs followed by compound washout measured after 12 hrs by MTT assay (Rvb = 51.34 +/- 5.1 uM)

## COc1cc2c(cc1OC)CN(CCn1cc(COc3ccccc3C(=O)Nc3ccccc3)nn1)CC2
[1]
  IC50: 25.5 µM

## COc1cc2c(cc1OC)CN(CCn1cc(COc3ccccc3C(=O)Nc3ccc(F)cc3)nn1)CC2
[1]
  IC50: 8.29 µM

## COc1cc2c(cc1OC)CN(CCn1cc(COc3ccccc3C(=O)Nc3cccc(C)c3)nn1)CC2
[1]
  IC50: 12.2 µM

## COc1cc2c(cc1OC)CN(CCn1cc(COc3ccccc3NC(=O)c3ccc(C(C)(C)C)cc3)nn1)CC2
[1]
  IC50: 3.42 µM

## COc1cc2c(cc1OC)CN(CCn1cc(COc3ccccc3C(=O)Nc3ccc(OC(F)(F)F)cc3)nn1)CC2
[1]
  IC50: 4.52 µM

## COc1cc2c(cc1OC)CN(CCn1cc(COc3ccccc3C(=O)Nc3cccc(Cl)c3)nn1)CC2
[1]
  IC50: 22.8 µM

## COc1cc2c(cc1OC)CN(CCn1cc(COc3ccccc3C(=O)Nc3cccc([N+](=O)[O-])c3)nn1)CC2
[1]
  IC50: 27.7 µM

## COc1ccc(NC(=O)c2ccccc2OCc2cn(CCN3CCc4cc(OC)c(OC)cc4C3)nn2)cc1OC
[1]
  IC50: 7.82 µM

## COc1ccc(NC(=O)c2ccccc2OCc2cn(CCN3CCc4cc(OC)c(OC)cc4C3)nn2)cc1
[1]
  IC50: 8.38 µM

## COc1cc2c(cc1OC)CN(CCn1cc(COc3ccccc3C(=O)Nc3ccc(Cl)cc3)nn1)CC2
[1]
  IC50: 6.93 µM

## COc1cc2c(cc1OC)CN(CCn1cc(COc3ccccc3C(=O)Nc3ccc([N+](=O)[O-])cc3)nn1)CC2
[1]
  IC50: 21.1 µM

## COc1cc2c(cc1OC)CN(CCn1cc(COc3ccccc3C(=O)Nc3ccc(C)cc3)nn1)CC2
[1]
  IC50: 7.65 µM

## COc1cc2c(cc1OC)CN(CCn1cc(COc3ccccc3C(=O)Nc3cc(OC)c(OC)c(OC)c3)nn1)CC2
[1]
  IC50: 31.9 µM

## COc1cc2c(cc1OC)CN(CCn1cc(COc3ccccc3C(=O)Nc3ccccc3[N+](=O)[O-])nn1)CC2
[1]
  IC50: 26.9 µM

## COc1cccc(NC(=O)c2ccccc2OCc2cn(CCN3CCc4cc(OC)c(OC)cc4C3)nn2)c1
[2]
  IC50: 8.73 µM

## COc1cc2c(cc1OC)CN(CCn1cc(COc3ccccc3C(=O)Nc3ccc(C(C)(C)C)cc3)nn1)CC2
[2]
  IC50: 1.27 µM
[3]
  EC50: 0.256 µM
[4]
  IC50: 6.02 µM
[5]
  IC50: 1.26 µM
[6]
  IC50: 34.9 µM
[7]
  IC50: 12.5 µM
[8]
  IC50: 3.33 µM
[9]
  IC50: 18.4 µM
[10]
  IC50: 37.2 µM
[11]
  IC50: 37.2 µM
[12]
  IC50: 6.32 µM
[13]
  IC50: 4.33 µM
[14]
  IC50: 17.2 µM
[15]
  IC50: 10.3 µM

## CCCCc1ccc(NC(=O)c2ccccc2OCc2cn(CCN3CCc4cc(OC)c(OC)cc4C3)nn2)cc1
[1]
  IC50: 6.25 µM

## COc1cc2c(cc1OC)CN(CCc1ccc(NC(=O)c3cc(OC)c(OC)cc3NC(=O)c3cnc4ccccc4c3)cc1)CC2
[5]
  IC50: 1.6 µM
[1]
  IC50: 1.97 µM
[12]
  IC50: 4.97 µM
[13]
  IC50: 3.02 µM
[14]
  IC50: 14.4 µM
[15]
  IC50: 8.28 µM
